Experimental data published in patent US11202743B2, “Personal care compositions comprising fatty acid amide derivatives” (Conopco, Inc., priority 2016, dated 2021).

Experiments:
human CB1 receptor = human CB1 receptor (Homo sapiens (Human), UniProt P21554); experiment: CB1 receptor binding assay, displacement of 3H CP-55,940 from membrane preparation; settings: inhibition of 3H CP-55,940 binding (1 nM), human CB1 membranes
Experimental: (§1) The ability of the compounds according to some embodiments of the present invention to inhibit a radiolabeled cannabinoid ligand, CP-55,940, [Side chain-2,3,4(N)-3H(N)]-(Perkin-Elmer Cat. # NET1051) to either the human CB1 receptor or CB2 receptor was determined according to the manufacturer's instructions in the commercially available membrane preparations from Perkin Elmer (Cat Nos. RBHCB1M400UA and RBXCB2M400UA). Briefly, pre-treatment of the glass fiber membrane of a Matrix 96 well GFC filtration microtiter plate was done in order to help reduce non-specific binding of the radioligand to the GFC membrane. This was done by adding 150 μl of 0.5% polyethylimine (PEI) to each well and letting this remain in the plate for at least 4 hours before using it to terminate the binding reaction. The actual binding reaction was performed in a polypropylene (PP) round bottom 96-well microtiter plate. Briefly, 55 μl of assay buffer (50 mM TRIS pH7.4, 2.5 mM EGTA, 5 mM MgCl2, 120 mM NaCl, 0.1% Fatty acid free BSA) was added to each well, followed by 20 μl of a 0.4 mg/ml CB1 or CB2 membrane suspension (8 μg membrane per well). To initiate the reaction, 20 μl of 5 nM ^3H CP-55,940 (1 nM final concentration) was added to each well. Nonspecific binding was defined in the presence of 20 μM unlabeled WIN 55212 (Sigma cat. W-102). ACEA was routinely used as a positive control for both assays. The plate was shaken on an orbital plate shaker and the binding reaction proceeded until equilibrium was reached after 3 hours at room temperature. Using a Multiscreen vacuum manifold, the PEI was filtered through the GFC filter plate. The binding reaction in the PP plate was mixed by aspirating the reaction contents of each well and dispensing back into the plate. This was repeated 4 times and then 75 μl of the reaction mixture was transferred to the GFC plate. This procedure could be done row by row with the use of a multichannel pipette, or all at once if using automation. Once the entire content of the PP plate was transferred to the GFC plate, the binding reactions were terminated by filtering thru the GFC plate. The filter plate was then washed by adding 100 μl ice-cold wash buffer 50 mM TRIS pH 7.4, 2.5 mM EGTA, 5 mM MgCl2, 120 mM NaCl, 2% Fatty acid free BSA) to each well and filtering through. This was repeated 8 times, after which the filter mat was allowed to dry. Once the filter mat was dry, 50 μl of Microscint scintillation cocktail was added to each well, allowed to sit for 15-20 min, and the plate read on a Microbeta2 scintillation counter.
(§2) The lower the IC50 value, the higher the binding.

[1] = biological target: recombinant human FAAH enzyme (Homo sapiens (Human), UniProt O00519); experiment: FAAH inhibition assay (Cayman Chemicals kit, AMC-arachidonoyl amide hydrolysis, fluorescence); type: biochemical
recombinant human FAAH enzyme, sequence (O00519 whole entry): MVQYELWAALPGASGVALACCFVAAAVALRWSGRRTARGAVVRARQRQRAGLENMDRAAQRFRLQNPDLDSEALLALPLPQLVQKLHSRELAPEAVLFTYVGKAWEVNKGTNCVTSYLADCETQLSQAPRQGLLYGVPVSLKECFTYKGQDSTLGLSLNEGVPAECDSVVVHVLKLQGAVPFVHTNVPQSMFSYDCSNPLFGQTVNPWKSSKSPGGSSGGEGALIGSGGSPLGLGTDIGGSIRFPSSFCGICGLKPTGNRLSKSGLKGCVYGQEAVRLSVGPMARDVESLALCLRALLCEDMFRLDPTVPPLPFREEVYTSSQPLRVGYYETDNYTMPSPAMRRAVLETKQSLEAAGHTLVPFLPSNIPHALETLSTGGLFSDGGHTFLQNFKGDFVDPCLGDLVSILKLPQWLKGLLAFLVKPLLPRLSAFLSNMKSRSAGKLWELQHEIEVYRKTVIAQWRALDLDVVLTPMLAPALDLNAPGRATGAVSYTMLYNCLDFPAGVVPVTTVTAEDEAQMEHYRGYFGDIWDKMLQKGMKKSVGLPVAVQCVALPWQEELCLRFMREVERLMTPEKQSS
Experimental: The ability of the compounds according to some embodiments of the present invention to inhibit FAAH was determined according to the methods disclosed a commercially available kit from Cayman Chemicals (Cayman Cat. No. 10005196). The kit utilizes recombinant human FAAH enzyme which hydrolyzes AMC-arachidonoyl amide resulting in the release of the fluorescent product, 7-amino-4-methylcoumarin (AMC). The fluorophore was detected via fluorescence, using an excitation wavelength of 340-360 nm and an emission wavelength of 450-465 nm. The assay was followed as described in the kit manual, which can be found on the webpage of Cayman Chemicals.

human CB2 receptor = human CB2 receptor (Homo sapiens (Human), UniProt P34972); experiment: CB2 receptor binding assay, displacement of 3H CP-55,940 from membrane preparation; settings: inhibition of 3H CP-55,940 binding (1 nM), human CB2 membranes
human CB2 receptor, sequence (P34972 whole entry): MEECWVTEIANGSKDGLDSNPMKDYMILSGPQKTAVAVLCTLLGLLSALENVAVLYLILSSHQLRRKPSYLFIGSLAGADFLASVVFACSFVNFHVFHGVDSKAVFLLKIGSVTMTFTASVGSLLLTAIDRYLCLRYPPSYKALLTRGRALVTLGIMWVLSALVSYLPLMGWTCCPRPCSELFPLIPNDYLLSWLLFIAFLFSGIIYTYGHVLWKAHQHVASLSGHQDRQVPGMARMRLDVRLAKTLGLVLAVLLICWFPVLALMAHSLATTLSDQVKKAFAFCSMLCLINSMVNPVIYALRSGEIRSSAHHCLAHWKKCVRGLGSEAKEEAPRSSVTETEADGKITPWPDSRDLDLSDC
Experimental: as §1, §2

[2] = Effect on solubility of 12 HSA (visual observation); type: physicochemical
[3] = system: serotonin-induced scratches (itch); settings: mice; cited from earlier work
[4] = 41.18% Tween 60, 29.41% 12-HSA, 29.41% compound
[5] = 41.67% Tween 60, 41.67% 12-HSA, 16.67% compound
[6] = 41.18% Tween 20, 29.41% 12-HSA, 29.41% compound
[7] = 48.28% Tween 20, 34.48% 12-HSA, 17.24% compound

human CB1 receptor, sequence (P21554 whole entry): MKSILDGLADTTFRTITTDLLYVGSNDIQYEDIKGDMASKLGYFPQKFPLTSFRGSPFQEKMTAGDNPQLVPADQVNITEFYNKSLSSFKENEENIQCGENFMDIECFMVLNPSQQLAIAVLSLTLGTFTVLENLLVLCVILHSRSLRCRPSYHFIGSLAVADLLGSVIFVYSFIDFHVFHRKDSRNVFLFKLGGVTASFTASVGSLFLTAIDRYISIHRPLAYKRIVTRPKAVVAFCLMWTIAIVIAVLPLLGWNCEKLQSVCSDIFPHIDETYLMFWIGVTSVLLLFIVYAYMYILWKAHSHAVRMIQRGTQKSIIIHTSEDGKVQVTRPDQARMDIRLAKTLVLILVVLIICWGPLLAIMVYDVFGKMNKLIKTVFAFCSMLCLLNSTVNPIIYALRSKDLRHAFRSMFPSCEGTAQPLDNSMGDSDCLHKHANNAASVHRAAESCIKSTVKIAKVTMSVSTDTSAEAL

Molecule | CB1 IC50 (human CB1 receptor) | IC50 [1] | CB2 IC50 (human CB2 receptor) | further results
CCCCC/C=C\C=C\CCCCCCCCC(=O)NC(Cc1ccccc1)C(=O)O (centres unmarked) [Compound 8] | No binding | 11 µM | No binding | 
conjugated linoleyl glycinate acid [Compound 1] | No binding | 2.6 µM | No binding | 
CCCCC/C=C\C=C\CCCCCCCCC(=O)NCCC(=O)O [Compound 4] |  | 2.8 µM |  | IC50 (human CB1 receptor): 22 µM; IC50 (human CB2 receptor): 26 µM
CCCCC/C=C\C=C\CCCCCCCCC(=O)NCC(=O)O [Compound 6] | No binding | 3.5 µM | No binding | 
CCCCCCC(O)CCCCCCCCCCC(=O)NCC(=O)O (centres unmarked) [Compound 18] | no binding activities | 46 µM | no binding activities | Observation ([2]; 48.39% Tween 60, 48.39% 12-HSA, 3.23% compound): translucent
CCCCCCC(O)CCCCCCCCCCC(=O)NC(C)C(=O)O (centres unmarked) [Compound 17] | no binding activities | 40 µM | no binding activities | 
CCCCC/C=C\C=C\CCCCCCCCC(=O)NC(C)C(=O)O (centres unmarked) [Compound 2] | No binding | 2.6 µM | No binding | 
CCCCC/C=C\C=C\CCCCCCCCC(=O)NC(CCC(=O)O)C(=O)O (centres unmarked) [Compound 11] | No binding |  | No binding | Observation [2, 4]: translucent/clear; Observation [2, 5]: translucent; FAAH IC50 [1]: No binding
CCCCCCC(O)C/C=C\CCCCCCCC(=O)NC(C)C(=O)O (centres unmarked) [Compound 12] | no binding activities | 42 µM | no binding activities | Observation [2, 6]: translucent; Observation [2, 4]: translucent
CCCCCCC(O)C/C=C\CCCCCCCC(=O)NCC(=O)O (centres unmarked) [Compound 14] | no binding activities | 26 µM | no binding activities | Observation [2, 6]: translucent; Observation [2, 4]: translucent
CCCCCC/C=C/C=C/CCCCCCCC(=O)NC(CC(=O)O)Cc1c[nH]cn1 (centres unmarked) [Compound 10] |  | 13 µM |  | IC50 (human CB2 receptor): 38 µM
CCCCCCC(O)CCCCCCCCCCC(=O)NC(CC(=O)O)C(=O)O (centres unmarked) [Compound 16] |  |  |  | Observation ([2]; 45.16% Tween 60, 38.71% 12-HSA, 16.13% compound): translucent
CCCCCC/C=C/C=C/CCCCCCCC(=O)NCCC(=O)O [Compound 3] |  | 2.8 µM |  | IC50 (human CB1 receptor): 22 µM; Observation [2, 7]: translucent; IC50 (human CB2 receptor): 26 µM
CCCCCC/C=C/C=C\CCCCCCCC(=O)NC(Cc1ccccc1)C(=O)O (centres unmarked) [Compound 7] | No binding | 11 µM | No binding | 
NC(=O)c1cccc(-c2cccc(OC(=O)NC3CCCCC3)c2)c1 [URB597] |  |  |  | Serotonin-induced scratches (itch) [3]: attenuate
CCCCC/C=C\C=C\CCCCCCCCC(=O)NCC(Cc1c[nH]cn1)C(=O)O (centres unmarked) [Compound 9] |  | 13 µM |  | IC50 (human CB2 receptor): 38 µM
CCCCCC/C=C/C=C\CCCCCCCC(=O)NCC(=O)O [Compound 5] | No binding | 3.5 µM | No binding | Observation ([2]; 33.33% Tween 20, 41.67% 12-HSA, […] compound): translucent; Observation ([2]; 40% Tween 20, 30% 12-HSA, 10% compound): translucent; Observation ([2]; 40.00% Tween 20, 40% 12-HSA, 20% compound): translucent; Observation [2, 7]: translucent; Observation ([2]; 48.28% Tween 60, 34.48% 12-HSA, 17.24% compound): translucent
CCCCCCC(O)CCCCCCCCCCC(=O)NC(CCC(=O)O)C(=O)O (centres unmarked) [Compound 19] |  |  |  | Observation ([2]; 50.00% Tween 60, 35.71% 12-HSA, 14.29% compound): translucent
CCCCCCC(O)C/C=C\CCCCCCCC(=O)NC(CCC(=O)O)C(=O)O (centres unmarked) [Compound 15] |  |  |  | Observation [2, 4]: translucent; Observation [2, 5]: translucent
CCCCCCC(O)C/C=C\CCCCCCCC(=O)NC(C(=O)O)C(C)CC (centres unmarked) [Compound 13] |  |  |  | Observation [2, 4]: translucent
